Data taken from patent publication US12686846B2, “Plant sweet and yeast MSF transporter capable of transporting different sugars simultaneously” (THE BOARD OF TRUSTEES OF THE UNIVERSITY OF ILLINOIS, priority 2020, dated 2026).
Entries after “also recorded” stand apart in the source; their conditions may differ.

Key:
[1] = target: T1, Lipomyces starkeyi LST1_205437 transporter, wild type, SEQ ID NO: 4 (Lipomyces starkeyi, UniProt A0A1E3QE37); experiment: Inhibition of xylose uptake by glucose, SR8D8 expressing LST1_205437; assay type: cell-based; conditions: 25 mM or 100 mM glucose; in words
T1 construct: whole-cell 14C sugar uptake
T1 sequence (A0A1E3QE37 1-603): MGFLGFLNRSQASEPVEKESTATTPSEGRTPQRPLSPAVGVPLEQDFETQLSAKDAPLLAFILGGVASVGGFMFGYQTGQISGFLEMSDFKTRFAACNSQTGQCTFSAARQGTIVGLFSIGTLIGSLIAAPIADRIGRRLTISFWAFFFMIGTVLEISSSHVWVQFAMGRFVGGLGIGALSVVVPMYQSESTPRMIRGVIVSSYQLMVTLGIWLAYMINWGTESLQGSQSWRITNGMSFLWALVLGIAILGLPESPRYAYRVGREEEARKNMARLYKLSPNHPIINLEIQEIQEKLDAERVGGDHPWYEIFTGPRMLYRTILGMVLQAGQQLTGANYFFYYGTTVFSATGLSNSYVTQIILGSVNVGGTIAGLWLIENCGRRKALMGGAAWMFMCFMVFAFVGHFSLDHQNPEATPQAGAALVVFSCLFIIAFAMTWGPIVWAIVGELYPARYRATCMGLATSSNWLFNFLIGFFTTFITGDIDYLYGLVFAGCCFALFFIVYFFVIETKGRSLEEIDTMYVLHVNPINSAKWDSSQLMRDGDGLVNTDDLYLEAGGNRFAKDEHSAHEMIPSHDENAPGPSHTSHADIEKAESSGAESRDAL
Protocol: (§1) Symbols: glucose (square), xylose (triangle up), DCW (circle), ethanol (triangle down), glycerol (diamond). […] Global curve fitting for Michaelis-Menten kinetics with competitive inhibition was applied to data of three independent measurements at each concentration.
(§2) SR8D8 containing the respective plasmid was grown on selective YPE medium to an OD600 of 1-1.5, harvested by centrifugation, and washed twice in ice-cold uptake buffer (100 mM potassium phosphate, pH 6.5). C14 labeled sugar uptake assay was done according to Boles and Oreb. Radioactivity was analyzed in a Beckman-Coulter LS6500 multi-purpose liquid scintillation counter (Beckman-Coulter, CA, USA).
(§3) Sugar solutions contained 0.135-0.608 μCi of D-[U-^14C]-glucose (290-300 mCi/mmol) or D-[1-^14C]-xylose (55 mCi/mmol) (PerkinElmer, MA, USA). Calculation of Km (Michaelis constant), Vmax (maximal initial uptake velocity), and K (inhibitor constant for competitive inhibition) was done by nonlinear regression analysis and global curve fitting in Prism 7 (GraphPad Software) with values of three independent measurements.

[2] = target: T2, Saccharomyces cerevisiae ScGal2 (Gal2) transporter, SEQ ID NO:32 (Saccharomyces cerevisiae, UniProt P13181); experiment: Inhibition of xylose uptake by glucose, SR8D8 expressing ScGal2; assay type: cell-based; conditions: in words
T2 construct: expressed in transfected cells; host or cells: S. cerevisiae SR8D8 (SR8 with HXT1-7 and GAL2 deleted), plasmid p42K-GPD1p-CYC1t
T2 sequence (P13181 1-574): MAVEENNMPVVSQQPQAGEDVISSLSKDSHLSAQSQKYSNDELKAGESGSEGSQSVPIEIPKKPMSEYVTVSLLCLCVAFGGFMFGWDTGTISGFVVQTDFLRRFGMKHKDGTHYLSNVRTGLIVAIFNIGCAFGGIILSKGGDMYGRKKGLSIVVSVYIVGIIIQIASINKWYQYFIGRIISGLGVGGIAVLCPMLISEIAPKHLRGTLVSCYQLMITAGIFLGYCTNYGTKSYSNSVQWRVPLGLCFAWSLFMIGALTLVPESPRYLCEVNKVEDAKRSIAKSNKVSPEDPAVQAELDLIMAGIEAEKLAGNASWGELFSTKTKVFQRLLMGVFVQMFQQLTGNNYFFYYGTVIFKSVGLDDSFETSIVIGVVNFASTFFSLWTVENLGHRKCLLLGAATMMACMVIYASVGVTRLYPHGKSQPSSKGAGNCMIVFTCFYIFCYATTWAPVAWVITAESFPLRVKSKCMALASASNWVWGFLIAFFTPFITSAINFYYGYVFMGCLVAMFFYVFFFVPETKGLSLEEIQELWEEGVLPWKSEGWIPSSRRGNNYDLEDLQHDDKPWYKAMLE
Protocol: as §1, §2, §3

## OC[C@H]1OC(O)[C@H](O)[C@@H](O)[C@@H]1O (stereo partly drawn) [Glucose]
[1]
  inhibition of xylose transport by glucose: less inhibited by glucose than those by ScGal2; also recorded: glucose concentration dependent inhibition of xylose transport
[2]; 25 mM glucose
  inhibition of xylose transport by glucose: complete xylose inhibition
[2]; 25 mM or 100 mM glucose
  inhibition of xylose transport by glucose: completely inhibited
